The values below are quoted from earlier work in patent publication US20090247593A1, “N-THIAZOL-2-YL-BENZAMIDE DERIVATIVES” (H. Lundbeck A/S, priority 2003, published 2009).

Series [1] deals with mice. The note with it: mouse forced swimming test.
The test system of series [2] is non-human primates treated with MPTP.
Series [3] deals with mice. The note with it: for total immobility time: mouse tail suspension test.
Series [4] relates to MPTP treated mice and 6-OHDA-lesioned rats.
Series [5] has as its system unilateral 6-OHDA lesioned mice and rats. The settings on record: elicited by a subthreshold dose of levodopa.
The mark [6] stands for this setting: mice previously screened for having high immobility time.

Like-named read-outs stand apart in the source and are kept apart here.

`Nc1nc(Cl)nc2c1ncn2[C@@H]1O[C@H](CO)[C@@H](O)[C@H]1O` [2-chloroadenosine]: the immobility time entry in the series on mice [1] was “increased immobility time”.

For `CCn1c(=O)c2c(nc(/C=C/c3ccc(OC)c(OC)c3)n2C)n(CC)c1=O` [KW-6002, 8-[(1E)-2-(3,4-dimethoxyphenyl)ethenyl]-1,3-diethyl-3,7-dihydro-7-methyl-1H-purine-2,6-dione], in series [2] (induced in non-human primates by MPTP), the motor impairment result is recorded as “significantly improves motor impairment”. For the same molecule, the dyskinesias result in series [2] (non-human primates, MPTP) is recorded as “without causing dyskinesias”. Moreover, the total immobility time result in the series on mice [3] was “reduced the total immobility time”. Moreover, in series [4], the “functional loss of dopaminergic nerve terminals in the striatum” value was “prevented functional loss of dopaminergic nerve terminals in the striatum” and the “gliosis normally induced around degenerating neurons” value was “prevented gliosis”. Further, the contralateral rotations result in series [5] was “enhance contralateral rotations”.

Turning to `Nc1nc2c(cnn2CCc2ccccc2)c2nc(-c3ccco3)nn12` [SCH58261, 2-(2-furanyl)-7-(2-phenylethyl)-7H-pyrazolo[4,3-e][1,2,4]triazolo[1,5-c]pyrimidin-5-amine], the immobility result with mice [3] (setting [6]) is reported as “reduce immobility”; in the series with mice [3] (mice selectively bred for their helplessness), “reduced immobility”. Moreover, the total immobility time entry in the series on mice [3] is listed as “reduced the total immobility time”. Besides, the contralateral rotations result in series [5] is on record as “enhance contralateral rotations”.

As to `Nc1nc(NCCc2ccc(O)cc2)nc2nc(-c3ccco3)nn12` [ZM241385, 4-(2-[7-amino-2-(2-furyl) [1,2,4]triazolo[2,3-a][1,3,5]triazin-5-ylamino]-ethyl)phenol], the immobility result in the series on mice [3] (setting [6]) is “reduce immobility”.

In the case of `Nc1ncnc2c1ncn2[C@@H]1O[C@H](CO)[C@@H](O)[C@H]1O` [adenosine], the immobility time entry with mice [1] is “increased immobility time”.
